Reference: patent US20260337212A1, “IP4-4,6 SUBSTITUTED DERIVATIVE COMPOUNDS FOR USE IN THE TREATMENT, INHIBITION OF PROGRESSION, AND PREVENTION OF ECTOPIC CALCIFICATION” (SANIFIT THERAPEUTICS, S.A., priority 2022, published 2026)

Assays:
[1] = In vitro inhibition of calcium phosphate crystallization in human plasma (spectrophotometric); format: biochemical; details: 0-100 μM, 1.5 mM phosphate, 12.5 mM calcium, pH 7.4, 30 min, rt, read-out: Relative Potency (EC50, inhibition of calcium phosphate crystallization)
Outline: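 Human plasma spiked with compound (0-100 μM), centrifuged, then brought to final 1.5 mM phosphate and 12.5 mM calcium, pH 7.4. Absorbance at 550 nm read every 3 min for 30 min at rt; inhibition from slopes (6-24 min, absorbance vs log time) relative to blank plasma.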

[2] = Rat calcinosis cutis/calciphylaxis model (vitamin D3 and FeCl3): skin plaque calcification; format: in vivo, Sprague Dawley rat; details: for Skin plaque % inhibition of calcification: FeCl3 0.5 mg/kg
Method: The dose-response efficacy of IP4-4,6 derivatives in the prevention and treatment of calcinosis cutis and calciphylaxis (CUA) induced by vitamin D3 and FeCl3 in a rat model was used. The model evaluated the effects of Compound 27 and IP6 on the formation of calcified skin plaques in rats for a duration of 8 days. Animals were sensitized at low concentration (LC, 35,000 IU/kg) and high concentration (HC, 50,000 IU/kg) doses of vitamin D3. A FeCl3 solution (0.5 mg/kg) was used as challenger to induce the formation of skin plaques. All animals were weighed every day before treatment.
Eighty-six male Sprague Dawley (SD) rats (Envigo Corp., Huntingdon, GB) weighing approximately 250-300 g were used. The animals were fed with a standard LASQCdiet® Rod14-H diet (LASvendi, Soest, DE). The animals were divided in 8 groups, 6 to 12 animals per group, as follows:
The following solutions were prepared: (a) 17,500 IU/mL (LC) and 25,000 IU/mL (HC) vitamin D3 (cholecalciferol, Duphafral D3 1000; Zoetis Inc., Parsippany, NJ, US), (b) 0.3 mg/mL FeCl3 (FeCl3·6H2O, 99%, Scharlab S. L., Barcelona, E S), (c) 30 mg/mL IP6 (660 g/mol phytic acid, pH 6.5-7.7), and (d) 15, 30, and 50 mg/mL Compound 27 (754.45 g/mol free acid, pH 6.5-7.7). All solutions were prepared in a 0.9% (w/v) physiological saline NaCl medium. An application volume of 2 mL/kg was employed.
Group 1—Control (sham), 6 animals. Animals in group 1 were administered subcutaneously physiological saline (0.9% (w/v) NaCl solution daily from D1 to D3 in the interscapular space, and with one saline 0.9% injection at each of the two ventral sites in the thorax on D4. Animals in group 1 were not administered Vit D or FeCl3 solutions.
(§1) Group 2—Physiological saline solution low concentration (Vehicle LC): Vit D 35,000 IU/kg, 0.5 mg/kg FeCl3 solution, 10 animals. Vit D at dose 35,000 IU/kg was administered subcutaneously x 3 consecutive days (D1, D2, D3), and one 0.5 mg/kg FeCl3 injection at each of the two ventral sites in the thorax on D4. This group received a daily saline 0.9% s.c. treatment (D1 to D8).
(§2) Group 3—Compound 27 60 mg/kg LC: Vit D 35,000 IU/kg, 0.5 mg/kg FeCl3, 10 animals. Vit D at dose 35,000 IU/kg was administered subcutaneously x 3 consecutive days (D1, D2, D3), and one 0.5 mg/kg FeCl3 injection at each of the two ventral sites in the thorax on D4. This group received a daily Compound 27 s.c. treatment at 60 mg/kg dose (D1 to D8).
as §1, with “4—Physiological” for “2—Physiological”, “high” for “low”, “HC):” for “LC):”, “50,000” for “35,000”, “FeCl3, 12” for “FeCl3 solution, 10”
as §2, with “5—IP6” for “3—Compound 27”, “HC,” for “LC:”, “50,000” for “35,000”, “12” for “10”, “IP6” for “Compound 27”
as §2, with “6—Compound” for “3—Compound”, “30” for “60”, “HC,” for “LC:”, “50,000” for “35,000”, “12” for “10”
as §2, with “7—Compound” for “3—Compound”, “[…],” for “LC:”, “50,000” for “35,000”, “12” for “10”
Group 8—Compound 27 100 mg/kg HC, Vit D 50,000 IU/kg, 0.5 mg/kg FeCl3, 12 animals. […]

EC50 [1]: ≤ 5 µM
Substance: 4,6-O-bis(5-acetamidopentyl)-myo-inositol-1,2,3,5-tetrakis(phosphate) octasodium salt [Compound 27]
Skin plaque % inhibition of calcification ([2]; 30 mg/kg s.c. daily D1-D8, HC (vitamin D3 50,000 IU/kg)): 96.8 ± 0.7 % | Skin plaque % inhibition of calcification ([2]; 60 mg/kg s.c. daily D1-D8, HC (vitamin D3 50,000 IU/kg)): 98.2 ± 0.1 % | Skin plaque % inhibition of calcification ([2]; 60 mg/kg s.c. daily D1-D8, LC (vitamin D3 35,000 IU/kg)): 95.7 ± 0.9 % | Skin plaque % inhibition of calcification ([2]; 100 mg/kg s.c. daily D1-D8, HC (vitamin D3 50,000 IU/kg)): 98.6 ± 0.1 % | Inhibition of the formation of skin plaque ([2]; 30, 60, 100 mg/kg s.c.): inhibits the formation of skin plaque in rats in a dose-response manner | Degree of inhibition of skin plaque calcification compared with IP6 ([2]; same dose (60 mg/kg)): higher than that reached by IP6 at the same dose
